Results from ChEMBL document CHEMBL3259585, “Molecular basis of the selective binding of MDMA enantiomers to the alpha4beta2 nicotinic receptor subtype: synthesis, pharmacological evaluation and mechanistic studies” (Eur J Med Chem, 2014).
pIC50, pKi: −log10 of the molar value. Activity calls are given as the source filed them. The calls are words filed in the database; no cut-off is given here.

Assays:
[1] = biological target: T1, Neuronal acetylcholine receptor; alpha4/beta2 (Rattus norvegicus) (UniProt P09483+P12390); experiment: Stimulation of [3H]epibatidine binding to alpha4beta2 nAChR in rat PC12 cells at 100 uM preincubated for 24 hrs followed by radioligand addition measured after 90 mins by liquid scintillation spectrometric analysis; format: cell-based; conditions: PC-12
[2] = biological target: T1, Neuronal acetylcholine receptor; alpha4/beta2 (Rattus norvegicus); experiment: (§1) Displacement of [3H]epibatidine from alpha4beta2 nAChR in Sprague-Dawley rat brain cortical membrane after 3 hrs by liquid scintillation spectrometric analysis; format: tissue-based
[3] = biological target: T2, Neuronal acetylcholine receptor; alpha4/beta2 (Rattus norvegicus, UniProt P09483+P12390); experiment: as §1; format: tissue-based
T2 sequence (P09483 whole entry): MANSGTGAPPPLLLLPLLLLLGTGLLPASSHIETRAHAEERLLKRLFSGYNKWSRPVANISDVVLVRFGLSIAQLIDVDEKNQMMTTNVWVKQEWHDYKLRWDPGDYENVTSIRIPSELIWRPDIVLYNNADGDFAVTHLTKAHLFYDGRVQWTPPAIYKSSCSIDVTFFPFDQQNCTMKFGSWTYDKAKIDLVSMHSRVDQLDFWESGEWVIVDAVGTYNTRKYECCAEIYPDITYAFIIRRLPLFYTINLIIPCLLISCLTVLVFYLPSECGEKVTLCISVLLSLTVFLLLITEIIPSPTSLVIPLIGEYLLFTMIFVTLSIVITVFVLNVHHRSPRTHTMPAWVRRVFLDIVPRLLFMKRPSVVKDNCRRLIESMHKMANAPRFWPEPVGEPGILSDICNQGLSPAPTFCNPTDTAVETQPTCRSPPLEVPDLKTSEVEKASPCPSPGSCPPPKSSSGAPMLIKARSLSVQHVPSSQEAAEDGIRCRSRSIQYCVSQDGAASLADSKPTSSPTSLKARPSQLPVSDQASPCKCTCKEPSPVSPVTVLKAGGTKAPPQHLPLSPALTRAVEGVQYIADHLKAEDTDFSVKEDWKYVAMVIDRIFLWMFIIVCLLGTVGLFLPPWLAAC
T2 sequence (P12390 whole entry): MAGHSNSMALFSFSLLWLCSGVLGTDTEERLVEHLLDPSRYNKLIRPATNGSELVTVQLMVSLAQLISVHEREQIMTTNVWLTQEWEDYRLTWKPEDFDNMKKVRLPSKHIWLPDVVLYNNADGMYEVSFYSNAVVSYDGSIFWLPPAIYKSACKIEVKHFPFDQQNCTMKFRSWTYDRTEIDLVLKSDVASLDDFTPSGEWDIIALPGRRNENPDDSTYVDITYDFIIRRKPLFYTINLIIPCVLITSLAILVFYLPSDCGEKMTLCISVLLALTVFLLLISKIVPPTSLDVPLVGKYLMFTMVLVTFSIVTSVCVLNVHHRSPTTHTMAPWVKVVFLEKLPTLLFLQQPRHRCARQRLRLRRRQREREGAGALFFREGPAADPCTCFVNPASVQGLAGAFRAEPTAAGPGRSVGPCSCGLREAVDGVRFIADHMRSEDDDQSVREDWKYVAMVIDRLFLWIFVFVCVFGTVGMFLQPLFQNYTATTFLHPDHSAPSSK

[4] = biological target: Sodium-dependent serotonin transporter (Rattus norvegicus, UniProt P31652); experiment: Displacement of [3H]-citalopram from SERT in Sprague-Dawley rat cortex, striatum and cerebellum-dissected brain after 60 mins by scintillation counting analysis; format: tissue-based
Sequence of Sodium-dependent serotonin transporter (P31652 whole entry): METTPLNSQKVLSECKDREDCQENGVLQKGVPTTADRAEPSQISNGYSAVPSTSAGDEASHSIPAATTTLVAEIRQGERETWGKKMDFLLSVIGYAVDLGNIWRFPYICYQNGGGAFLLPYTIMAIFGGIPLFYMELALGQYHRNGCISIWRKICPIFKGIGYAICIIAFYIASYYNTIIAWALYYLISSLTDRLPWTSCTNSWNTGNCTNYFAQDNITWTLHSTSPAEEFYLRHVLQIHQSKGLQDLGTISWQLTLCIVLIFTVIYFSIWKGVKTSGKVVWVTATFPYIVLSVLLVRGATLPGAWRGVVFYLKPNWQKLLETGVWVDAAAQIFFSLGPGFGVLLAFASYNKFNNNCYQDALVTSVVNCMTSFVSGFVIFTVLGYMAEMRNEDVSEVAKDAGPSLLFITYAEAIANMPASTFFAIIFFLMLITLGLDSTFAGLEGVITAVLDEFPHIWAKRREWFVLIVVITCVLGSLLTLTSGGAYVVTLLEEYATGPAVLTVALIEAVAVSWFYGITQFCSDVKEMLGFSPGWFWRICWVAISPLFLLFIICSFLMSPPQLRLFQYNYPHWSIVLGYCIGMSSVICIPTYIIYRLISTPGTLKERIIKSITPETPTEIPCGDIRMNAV

[5] = biological target: T2, Neuronal acetylcholine receptor; alpha4/beta2; experiment: Displacement of [3H]epibatidine from alpha4beta2 nAChR in Sprague-Dawley rat brain cortical membrane after 3 hrs; format: tissue-based
Rattus norvegicus = experiment: In vivo stimulation of [3H]epibatidine binding to nicotinic acetylcholine receptor in rat prefrontal cortex relative to control; format: functional

Structure (SMILES)	Activity [1]	inhibition [2]	pIC50 [3]	pKi [4]	pKi [5]	Activity (Rattus norvegicus)
CN[C@H](C)Cc1ccc2c(c1)OCO2	Active	Dose-dependent effect	4.87	4.61	6.20	–
CN[C@@H](C)Cc1ccc2c(c1)OCO2	inactive	Dose-dependent effect	3.76	–	5.09	–
CN1CCC[C@H]1c1cccnc1 [NICOTINE]	–	–	–	–	–	30%
CNC(C)Cc1ccc2c(c1)OCO2 (racemic) [MIDOMAFETAMINE]	Active	Dose-dependent effect	4.52	–	5.84	35%
